Results from PubChem BioAssay (NCI).
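Compound exposure: 48 hours, 5 concentrations, 96-well plates. GI50 marks 50% less growth. Definition used: TGI = concentration required for complete inhibition of growth.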

How the values were obtained:
Test in all cases: DTP human tumour cell line panel, 48 h
SR leukemia = system: SR leukemia
U251 CNS = system: U251 CNS
TK-10 renal = system: TK-10 renal
OVCAR-3 ovarian = system: OVCAR-3 ovarian
A549 NSCLC = system: A549 NSCLC
HCC-2998 colon = system: HCC-2998 colon
SK-OV-3 ovarian = system: SK-OV-3 ovarian
KM12 colon = system: KM12 colon
CAKI-1 renal = system: CAKI-1 renal
SK-MEL-5 melanoma = system: SK-MEL-5 melanoma

| Structure (SMILES) | GI50 (SR leukemia) | TGI (SR leukemia) | GI50 (U251 CNS) | TGI (U251 CNS) | GI50 (TK-10 renal) | TGI (TK-10 renal) | GI50 (OVCAR-3 ovarian) | TGI (OVCAR-3 ovarian) | GI50 (A549 NSCLC) | TGI (A549 NSCLC) | GI50 (HCC-2998 colon) | TGI (HCC-2998 colon) | GI50 (SK-OV-3 ovarian) | TGI (SK-OV-3 ovarian) | GI50 (KM12 colon) | TGI (KM12 colon) | GI50 (CAKI-1 renal) | TGI (CAKI-1 renal) | GI50 (SK-MEL-5 melanoma) | TGI (SK-MEL-5 melanoma) |
| --- | --- | --- | --- | --- | --- | --- | --- | --- | --- | --- | --- | --- | --- | --- | --- | --- | --- | --- | --- | --- |
| COc1ccc2c(c1)c(-c1nc(-c3cn(C)c4ncccc34)cs1)cn2CCCCN1CCOCC1 | 0.724 µM | 1.98 µM | 1.25 µM | 2.93 µM | 2.73 µM | 8.19 µM | 1.62 µM | 3.38 µM | 1.71 µM | 3.71 µM | 1.73 µM | 3.77 µM | 4.22 µM | 15.2 µM | 1.42 µM | 3.09 µM | 1.39 µM | 2.89 µM | 1.67 µM | 3.06 µM |
| CC(C)NCCCCCNc1cc(O)cc2cccnc12 | > 100 µM | > 100 µM | > 100 µM | > 100 µM | > 100 µM | > 100 µM | 2.43 µM | 9.37 µM | > 100 µM | > 100 µM | > 44.2 µM | > 100 µM | > 100 µM | > 100 µM | > 100 µM | > 100 µM | > 100 µM | > 100 µM | 98.1 µM | > 100 µM |
| COC(=O)C(C(=O)C(=O)Nc1ccc([N+](=O)[O-])cc1)c1nc2cc(C)c(C)cc2[nH]c1=O (stereo not drawn) | – | > 100 µM | – | > 100 µM | – | > 100 µM | – | > 100 µM | – | > 100 µM | – | > 100 µM | – | > 100 µM | – | > 100 µM | – | > 100 µM | – | > 100 µM |
| Cc1ccc2nc(CC(=O)c3ccc4ccccc4c3)c(=O)[nH]c2c1 | – | > 100 µM | – | > 100 µM | – | > 100 µM | – | > 100 µM | – | > 100 µM | – | > 100 µM | – | > 100 µM | – | > 100 µM | – | > 100 µM | – | > 100 µM |
| CC(C)N(C(=O)C12C3C4C5C3C1(C#N)C5C42)C(C)C (stereo not drawn) | – | > 100 µM | – | > 100 µM | – | > 100 µM | – | > 100 µM | – | > 100 µM | – | > 100 µM | – | > 100 µM | – | > 100 µM | – | > 100 µM | – | > 100 µM |
| O=C(Nc1ccc(Cl)cc1F)c1cc(Cl)ccc1O | 2.2 µM | > 49.3 µM | 0.466 µM | > 100 µM | 1.31 µM | > 31.2 µM | 0.412 µM | > 20.5 µM | 1.34 µM | > 100 µM | 2.23 µM | 8.77 µM | 0.576 µM | 8.6 µM | 1.51 µM | 4.28 µM | 0.298 µM | 2.52 µM | 0.209 µM | 0.529 µM |
| COc1ccc(NC(=O)CC(=O)n2nc(-c3ccccc3)c(N=Nc3ccccc3C)c2-c2ccccc2)cc1 | – | > 100 µM | – | 35.3 µM | – | 47.2 µM | – | 33.3 µM | – | 41.7 µM | – | > 100 µM | – | 36.3 µM | – | > 100 µM | – | > 64.8 µM | – | > 86.5 µM |
| COc1cc(/C=N/Nc2ncnc3c2cnn3Cc2ccccc2)ccc1O | > 25 µM | > 25 µM | 6.51 µM | > 25 µM | 6.39 µM | 19.1 µM | 6.8 µM | > 19.7 µM | 8.69 µM | > 23.9 µM | 15.2 µM | > 25 µM | 5.99 µM | 16.8 µM | 7.68 µM | > 25 µM | > 19.9 µM | > 25 µM | 12.2 µM | > 25 µM |
| O=C(Nc1ccc(O)c(NS(=O)(=O)c2ccc(F)cc2)c1)c1ccc(-c2ccccc2)cc1 | 2.47 µM | 9.3 µM | 9.07 µM | 26.1 µM | 11.9 µM | 30.3 µM | 4.72 µM | 22.1 µM | 4.81 µM | 29.9 µM | 17.5 µM | 45.3 µM | 18.8 µM | 44.2 µM | 10 µM | 23.3 µM | 5.65 µM | 32.6 µM | 6.42 µM | 19.3 µM |
| CC(=O)OCc1c(C)c2ccccc2n1C(C)=O | – | 76.1 µM | – | > 100 µM | – | > 100 µM | – | 62.8 µM | – | > 100 µM | – | > 100 µM | – | > 100 µM | – | > 100 µM | – | > 100 µM | – | > 100 µM |
| C/C=C(\C)C(=O)OC1C2C(C)C(=O)OC2C(O)C(C)C2C=CC(=O)C21C (stereo not drawn) | – | 18.3 µM | – | 24.6 µM | – | 26.9 µM | – | 23.7 µM | – | 61.3 µM | – | 29.8 µM | – | 39.6 µM | – | 30.3 µM | – | 28.4 µM | – | 21.4 µM |
| CCCCC/C=C\C/C=C/CCCCCCCCNC(=O)Nc1ccc([N+](=O)[O-])cc1 | 10.8 µM | 37.6 µM | 6.05 µM | > 100 µM | > 100 µM | > 100 µM | 6.74 µM | > 100 µM | 38.2 µM | > 100 µM | 15.7 µM | > 100 µM | 40.7 µM | > 100 µM | 6.96 µM | > 100 µM | 5.9 µM | > 100 µM | 14.8 µM | 32.4 µM |
| CC#CC(=O)N[C@H]1CCCN(c2c(F)cc(C(N)=O)c3[nH]c(C)c(C)c23)C1 | 17.6 µM | > 100 µM | 17.3 µM | 36.3 µM | 24.5 µM | 95.7 µM | 21.9 µM | 63.7 µM | 21.3 µM | 70.2 µM | 16.6 µM | 30.7 µM | 14.4 µM | 59.6 µM | 14.3 µM | 46.4 µM | 13.4 µM | 34.1 µM | 17.9 µM | 31.9 µM |
| O=C(c1ccncc1)N1CCN(C2=NS(=O)(=O)c3ccccc3N2c2ccccc2)CC1 | 0.177 µM | 2.42 µM | 8.32 µM | > 100 µM | 31.5 µM | 77.1 µM | 32.1 µM | > 100 µM | 20.6 µM | > 100 µM | 16.3 µM | 37.6 µM | 13.4 µM | > 100 µM | 29.2 µM | > 100 µM | 30.3 µM | 88.5 µM | 11.6 µM | 24.1 µM |
| Cc1nc2sc(C(=O)Nc3cccc(Cl)c3C)c(N)c2cc1C(=O)c1ccccc1 | 0.131 µM | 16.9 µM | 0.219 µM | > 50 µM | 2.48 µM | > 50 µM | 0.176 µM | 1.37 µM | 0.245 µM | > 50 µM | 1.01 µM | > 50 µM | 0.229 µM | > 50 µM | 0.225 µM | > 50 µM | 0.214 µM | > 50 µM | 0.278 µM | 6.13 µM |
| CCOC(=O)NN(C(=O)OCC)C(C(=O)c1ccc(Cl)cc1)=C1NCCN1 | – | > 100 µM | – | > 100 µM | – | > 100 µM | – | > 100 µM | – | > 100 µM | – | > 100 µM | – | > 100 µM | – | > 100 µM | – | > 100 µM | – | > 100 µM |
| COc1ccc(CCN2COc3ccc4ccc(=O)oc4c3C2)cc1OC | – | 50.5 µM | – | > 100 µM | – | > 100 µM | – | > 100 µM | – | > 100 µM | – | > 100 µM | – | > 100 µM | – | > 100 µM | – | > 100 µM | – | > 100 µM |
| CCCC(=O)Nc1ncnc2c1ncn2C1OC2COP(=O)(O)OC2C1OC(=O)CCC (stereo not drawn) | – | > 1000 µM | > 1000 µM | > 1000 µM | – | > 1000 µM | > 1000 µM | > 1000 µM | > 1000 µM | > 1000 µM | > 1000 µM | > 1000 µM | > 1000 µM | > 1000 µM | > 1000 µM | > 1000 µM | > 1000 µM | > 1000 µM | > 1000 µM | > 1000 µM |
| CS(=O)(=O)c1ccc(-c2[nH]c3ccc(F)cc3c2/C=N/NC(N)=S)cc1 | 0.329 µM | 32.8 µM | 0.777 µM | > 100 µM | 5.88 µM | > 100 µM | 0.446 µM | 12.1 µM | 2.86 µM | > 100 µM | 2.95 µM | 14.7 µM | 1.86 µM | > 100 µM | 0.73 µM | 28.8 µM | 3.86 µM | > 100 µM | 0.634 µM | 11.9 µM |
| CCNC(=O)c1ccc2c(c1)nc(-c1ccc(Cl)cc1)n2-c1cc(C(C)(C)C)[nH]n1 | 1.06 µM | 9.32 µM | 3.28 µM | 12.2 µM | 6.14 µM | 71.3 µM | 2.49 µM | 7.77 µM | 3.19 µM | 31.9 µM | 3.96 µM | 26.7 µM | 3.6 µM | 17.3 µM | 3.12 µM | 36.8 µM | 2.84 µM | 46.6 µM | 1.54 µM | 5.72 µM |
| N#CC(C#N)=Cc1ccc(Oc2ccccc2)cc1 | – | > 100 µM | – | > 57 µM | – | > 100 µM | – | > 100 µM | – | > 100 µM | – | > 100 µM | – | > 100 µM | – | > 100 µM | – | > 100 µM | – | 64.7 µM |
| O=C1CCCC(=O)C1C(=O)c1ccc(C(F)(F)F)cc1[N+](=O)[O-] | > 100 µM | > 100 µM | > 100 µM | > 100 µM | > 100 µM | > 100 µM | > 100 µM | > 100 µM | > 100 µM | > 100 µM | > 100 µM | > 100 µM | > 100 µM | > 100 µM | > 100 µM | > 100 µM | > 100 µM | > 100 µM | > 100 µM | > 100 µM |
